Laboratory results reported in article PMC4193777 (PLoS ONE, 2014).

Experiments:
[1] = target: T1, FPR2 (Homo sapiens, UniProt P25090); assay: Homologous desensitization of neutrophils (superoxide); assay type: cell-based; conditions: first F2Pal10 (500 nM) then WKYMVM (40 nM), or reversed order, five minutes apart
T1 construct: Human peripheral blood neutrophils were isolated from buffy coats from healthy blood donors; endogenous in cells; host or cells: primary human peripheral blood neutrophils from buffy coats of healthy donors
T1 sequence (P25090 1-351): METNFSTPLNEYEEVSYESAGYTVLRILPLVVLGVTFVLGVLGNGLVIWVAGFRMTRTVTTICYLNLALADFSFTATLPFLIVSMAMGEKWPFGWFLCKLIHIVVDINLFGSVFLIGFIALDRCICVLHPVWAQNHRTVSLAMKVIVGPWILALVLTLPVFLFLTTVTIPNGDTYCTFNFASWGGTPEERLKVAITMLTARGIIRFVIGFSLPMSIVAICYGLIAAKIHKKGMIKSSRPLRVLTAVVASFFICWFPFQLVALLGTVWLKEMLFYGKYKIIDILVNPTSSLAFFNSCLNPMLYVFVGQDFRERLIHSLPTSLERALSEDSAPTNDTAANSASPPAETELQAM
Experimental: Human peripheral blood neutrophils were isolated from buffy coats from healthy blood donors using dextran sedimentation and Ficoll-Paque gradient centrifugation as described. The remaining erythrocytes were disrupted by hypotonic lysis, the neutrophils were washed twice, resuspended in KRG, and stored on melting ice until use. This isolation procedure permits cells to be purified with minimal granule mobilization.
The NADPH-oxidase activity was determined using isoluminol-enhanced chemiluminescence (CL), [27]. The CL activity was measured in a six-channel Biolumat LB 9505 (Berthold Co., Wildbad, Germany), using disposable 4-ml polypropylene tubes with a 900 µl reaction mixture containing 10^5 cells, isoluminol (2×10^−5 M) and HRP (2 U). The tubes were equilibrated in the Biolumat for 5 min at 37°C, after which the stimulus (100 µl) was added and the light emission was recorded continuously. […]
Figure 1 The F2Pal10 pepducin specifically activates FPR2. A. Primary human neutrophils were activated by F2Pal10 (500 nM) in the absence (solid line) or presence of the receptor specific inhibitor PBP10 (FPR2 specific inhibitor; 1 µM final concentration, dashed line) or the FPR1 antagonist cyclosporin H (CysH; 1 µM final concentration, dotted line) and the release of superoxide anions was recorded continuously. […] The release of superoxide anions was recorded continuously. […]

[2] = tested on: FPR2; assay: Calcium mobilization in undifferentiated HL-60 cells overexpressing FPR2; assay type: cell-based; conditions: Fura-2; F2Pal10 10 nM
From the text: The procedures used to obtain stable expression of FPR1 and FPR2 in undifferentiated HL-60 cells have been previously described. To prevent possible auto-differentiation due to the accumulation of differentiation factors in the culture medium, cells were passed twice a week before they reached a density of 2×10^6 cells/ml. At each passage, an aliquot of the cell culture was centrifuged, the supernatant was discarded and the cell pellet was resuspended in fresh RPMI 1640 medium containing FCS (10%), PEST (1%), and G418 (1 mg/ml).
Neutrophils or transfected HL-60 cells at a density of 5×10^7 cells/ml in KRG containing 0.1% BSA were loaded with 5 µM FURA 2-AM for 30 minutes in the dark at room temperature. […] Calcium measurements were carried out in a PerkinElmer fluorescence spectrophotometer (LC50), with excitation wavelengths of 340 nm and 380 nm, an emission wavelength of 509 nm, and slit widths of 5 nm and 10 nm, respectively. The transient rise in intracellular calcium is presented as the ratio of fluorescence intensities (340 nm: 380 nm) detected. […] The relative calcium level was expressed as a ratio between Fluo-3 and Fura Red (FL-1/FL-3) fluorescence over time.
Figure 1 The F2Pal10 pepducin specifically activates FPR2. […] The release of superoxide anions was recorded continuously. […] Abscissa, time of study (sec); ordinate, fluorescence (arbitrary units).

[3] = tested on: neutrophils; assay: Calcium mobilization in neutrophils; assay type: cell-based, human; conditions: WKYMVM 100 nM or F2Pal10 500 nM
Experimental: Neutrophils or transfected HL-60 cells at a density of 5×10^7 cells/ml in KRG containing 0.1% BSA were loaded with 5 µM FURA 2-AM for 30 minutes in the dark at room temperature. The cells were then diluted 1/2 in RPMI 1640 culture medium without phenol red (PAA Laboratories GmbH, Pasching, Austria) and centrifuged. Finally, the cells were washed once with KRG and resuspended in the same buffer at a density of 2×10^7/ml. Calcium measurements were carried out in a PerkinElmer fluorescence spectrophotometer (LC50), with excitation wavelengths of 340 nm and 380 nm, an emission wavelength of 509 nm, and slit widths of 5 nm and 10 nm, respectively. The transient rise in intracellular calcium is presented as the ratio of fluorescence intensities (340 nm: 380 nm) detected. The measuring cuvette contained catalase (2000 U) to counteract inactivation of the chemoattractants by the MPO-H2O2-system. […] The relative calcium level was expressed as a ratio between Fluo-3 and Fura Red (FL-1/FL-3) fluorescence over time.
Figure 5 F2Pal10 induces pertussis toxin sensitive superoxide production and triggers mobilization of calcium from intracellular stores. […] Abscissa, time of study (sec); ordinate, fluorescence (arbitrary unit). […]

**Q.** Which results are given for `CSCC[C@H](NC(=O)[C@@H](NC(=O)[C@H](CCSC)NC(=O)[C@H](Cc1ccc(O)cc1)NC(=O)[C@H](CCCCN)NC(=O)[C@@H](N)Cc1c[nH]c2ccccc12)C(C)C)C(N)=O` [WKYMVM]?
**A.** desensitization to second FPR2 agonist [1]: vice versa; intracellular calcium response, FPR2 HL-60 cells [2]: time course of the response was very similar; rise in cytosolic Ca2+ in neutrophils ([3]; Fluo-3/Fura Red, without EGTA): a rise in the cytosolic concentration of Ca^2+ was induced; rise in cytosolic Ca2+ in neutrophils, with EGTA ([3]; extracellular Ca2+ removed by EGTA (2 mM)): The rise was evident also when extracellular Ca^2+ was removed
